From article PMC5296257 (Bioorganic & medicinal chemistry letters, 2017)

Legend:
[1] = Mammalian cytotoxicity on non-immortalized IMR90 cells; format: cell-based; conditions: human
[2] = tested on: T. brucei bloodstream form (BSF); assay: T. brucei bloodstream form parasite viability; format: cell-based, Trypanosoma brucei; conditions: SI = IMR90 EC50/parasite EC50
[3] = tested on: L. amazonensis promastigote form parasites; assay: L. amazonensis promastigote viability; format: cell-based; conditions: SI = IMR90 EC50/parasite EC50
[4] = tested on: C/EBP-homologous protein (CHOP); conditions: cited from earlier work
[5] = tested on: T. brucei BSF 90-13 parasites; assay: Annexin V-FITC labeling; format: cell-based; conditions: BSF trypanosomes, 6 h exposure at compound's EC50 value; control line 463

SMILES | EC50 [1] [µM] | T. brucei selectivity index, SI [2] | L. amazonensis selectivity index, SI [3] | mammalian CHOP activity [4] | Annexin-V labeling, relative fluorescence median signal [5]
CC1(C)CCN(S(=O)(=O)c2ccc(NC(=O)c3ccc([N+](=O)[O-])s3)cc2)CC1 [Compound 22] | > 25 | > 2500 | > 250 | – | –
CC1(C)CCN(S(=O)(=O)c2ccc(NC(=O)c3cccc([N+](=O)[O-])c3)cc2)CC1 [Compound 19] | > 25 | > 4 | > 2 | no mammalian CHOP activity | –
O=C(Nc1ccc(S(=O)(=O)N2CCCCC2)cc1)c1ccc([N+](=O)[O-])o1 [Compound 2] | > 25 | >114 | > 2 | – | –
O=C(Nc1ccc(S(=O)(=O)c2ccccc2)cc1)c1ccc([N+](=O)[O-])o1 [Compound 13] | > 25 | > 227 | > 6 | – | –
O=C(Nc1ccc(S(=O)(=O)N2CCC3(CCCCC3)CC2)cc1)c1ccc([N+](=O)[O-])s1 [Compound 24] | > 25 | > 1250 | > 250 | – | –
O=C(Nc1ccc(S(=O)(=O)N2CCOCC2)cc1)c1ccco1 [Compound 14] | > 25 | – | – | – | –
CC1CCN(S(=O)(=O)c2ccc(NC(=O)c3ccc([N+](=O)[O-])o3)cc2)CC1 [Compound 3] | > 25 | > 208 | > 3 | – | –
CC1(C)CCN(S(=O)(=O)c2cccc(NC(=O)c3ccc([N+](=O)[O-])o3)c2)CC1 [Compound 26] | > 25 | > 78 | > 250 | – | –
CC1(C)CCN(S(=O)(=O)c2cccc(NC(=O)c3ccc([N+](=O)[O-])s3)c2)CC1 [Compound 25] | > 25 | > 556 | > 19 | – | –
O=C(Nc1ccc(S(=O)(=O)C2=CCOC=C2)cc1)c1ccc([N+](=O)[O-])o1 [Compound 12] | > 25 | > 47 | > 83 | – | –
O=C(Nc1ccc(S(=O)(=O)N2CCOCC2)cc1)c1ccc([N+](=O)[O-])s1 [Compound 21] | > 25 | > 417 | > 19 | – | –
O=C(Nc1ccc(S(=O)(=O)N2CCOCC2)cc1)c1ccccc1 [Compound 16] | > 25 | – | – | – | –
Cc1ccc(C(=O)Nc2ccc(S(=O)(=O)N3CCOCC3)cc2)o1 [Compound 17] | > 25 | – | – | – | –
CC(C)(C)C1CCN(S(=O)(=O)c2ccc(NC(=O)c3ccc([N+](=O)[O-])s3)cc2)CC1 [Compound 23] | > 25 | > 833 | > 250 | – | –
O=C(Nc1ccc(S(=O)(=O)N2CCC3(CCCCC3)CC2)cc1)c1ccc([N+](=O)[O-])o1 [Compound 6] | > 25 | > 833 | > 17 | – | –
O=C(Nc1ccc(S(=O)(=O)N2CCC(Cl)CC2)cc1)c1ccc([N+](=O)[O-])o1 [Compound 8] | > 25 | > 313 | > 3 | – | –
O=C(Nc1ccc(S(=O)(=O)C2CCCCC2)cc1)c1ccc([N+](=O)[O-])o1 [Compound 11] | > 25 | > 51 | > 16 | – | –
O=C(Nc1ccc(S(=O)(=O)N2CCC(F)CC2)cc1)c1ccc([N+](=O)[O-])o1 [Compound 9] | > 25 | > 60 | > 3 | – | –
CC(C)(C)C1CCN(S(=O)(=O)c2ccc(NC(=O)c3ccc([N+](=O)[O-])o3)cc2)CC1 [Compound 5] | > 25 | > 833 | > 18 | – | 1225
CC1(C)CCN(S(=O)(=O)c2ccc(NC(=O)c3ccc([N+](=O)[O-])o3)cc2)CC1 [Compound 4] | > 25 | > 278 | > 89 | – | –
O=C(Nc1ccc(S(=O)(=O)N2CCC(O)CC2)cc1)c1ccc([N+](=O)[O-])o1 [Compound 7] | > 25 | > 81 | > 6 | – | –
O=C(Nc1ccc(S(=O)(=O)N2CCOCC2)cc1)c1cccs1 [Compound 15] | > 25 | – | – | – | –
O=C(Nc1ccc(S(=O)(=O)N2CCOCC2)cc1)c1ccc([N+](=O)[O-])o1 [Compound 1] | > 25 | > 54 | > 8 | – | –
O=C(Nc1cccc(S(=O)(=O)N2CCOCC2)c1)c1ccc([N+](=O)[O-])o1 [Compound 29] | > 25 | > 17 | > 28 | – | –
O=C(Nc1ccc(S(=O)(=O)N2CCOCC2)cc1)c1ccc([N+](=O)[O-])cc1 [Compound 18] | > 25 | – | – | – | –
N=C1CCN(S(=O)(=O)c2ccc(NC(=O)c3ccc([N+](=O)[O-])o3)cc2)CC1 [Compound 10] | > 25 | > 34 | > 2 | – | –
CC1(C)CCN(S(=O)(=O)c2cccc(NC(=O)c3ccco3)c2)CC1 [Compound 27] | > 25 | > 5 | > 21 | – | –
CC1(C)CCN(S(=O)(=O)c2cccc(NC(=O)c3cccc([N+](=O)[O-])c3)c2)CC1 [Compound 28] | > 25 | > 2 | > 8 | – | –
CC1(C)CCN(S(=O)(=O)c2ccc(NC(=O)c3ccc(C(F)(F)F)o3)cc2)CC1 [Compound 20] | > 25 | > 3 | > 2 | no mammalian CHOP activity | –
